98 compounds from ChEMBL document CHEMBL3507680, “University of Dundee, Gates Library screen for HepG2 cell viability” can be followed below.

Structures are written as SMILES.

This data set is described as follows: Human HepG2 cell viability assay in 384 well format. To be noted: HepG2 cells, read-out: Inhibition. The arrangement: dose 125 nL, time 70.5 hour; concentration not given beside the values. In kind it is toxicity, cell-based.

In the case of `COCCN(Cc1ccsc1)C(=O)c1c(C)cc(C)[nH]c1=O`, the cytotoxicity at 70.5 h is -1.09%.

As for `COc1ccc(-n2c(SC)nc(O)c(Cc3ccccc3)c2=O)cc1`, the cytotoxicity at 70.5 h is -2.29%.

As for `CCNc1ncc(C(=O)NC(CC)c2ccnn2C)cn1` (stereo not drawn), the cytotoxicity at 70.5 h is -5.36%.

With `COCc1noc(CN2C[C@H](C3CC3)[C@@H](N(C)C)C2)n1`, the cytotoxicity at 70.5 h was -8.41%.

For the compound `CCN(C)CC(=O)N1CCC(c2cc(N3CCOCC3)nc(C)n2)CC1`, the cytotoxicity at 70.5 h is -11.5%.

As to `COc1ccc(N2CCN(C(=O)CCn3nccc3C)C(C)C2)cc1` (stereo not drawn), the cytotoxicity at 70.5 h is -3.13%.

Take `OCC1(O)CCCN(Cc2ccc(-c3cc[nH]n3)s2)CC1` (stereo not drawn): the cytotoxicity at 70.5 h is -9.87%.

In the case of `Cn1ccnc1C1CCCN(C(=O)c2ccc3nccnc3c2)C1` (stereo not drawn), the cytotoxicity at 70.5 h stood at 2.22%.

`Cc1ccn(-c2cncc(C(N)=O)c2)n1`: the cytotoxicity at 70.5 h was -14.4%.

With `CCOc1ccc2nc(CN3CCC(CN)C3)ccc2c1` (stereo not drawn), the cytotoxicity at 70.5 h is -2.57%.

As to `CN(Cc1cccc(O)c1)C(=O)c1ccc(CCC(C)(C)O)cc1`, the cytotoxicity at 70.5 h is 0.182%.

As to `CC(=O)N1CCc2c(nc(-c3cccnc3)nc2N(C)CC(O)CO)C1` (stereo not drawn), the cytotoxicity at 70.5 h is -6.57%.

Consider `CN(C)CCn1ccnc1C1CCCN(c2nccc3ccccc23)C1` (stereo not drawn), for which the cytotoxicity at 70.5 h came to 1.12%.

Take `CC(=O)N[C@@H]1CN(Cc2oc3ccccc3c2C)C[C@H]1c1ccc(C)o1`: the cytotoxicity at 70.5 h was -7.22%.

As to `CCCN(Cc1ccccc1C)C(CC)CO` (stereo not drawn), the cytotoxicity at 70.5 h is -7.79%.

As for `CO[C@@H]1c2ccccc2C2(CCN(C(=O)CNS(C)(=O)=O)CC2)[C@H]1O`, the cytotoxicity at 70.5 h was 23.4%.

Take `O=C(CC1COCCN1)NCCc1nc(-c2ccccn2)no1` (stereo not drawn): the cytotoxicity at 70.5 h is -6.55%.

As to `COc1cc(F)c(C(=O)N2C[C@@H](CN(C)CCO)[C@@H](CO)C2)c(F)c1`, the cytotoxicity at 70.5 h is -2.86%.

As for `COc1ccc(Cc2c(O)nc(SC)n(-c3ccccc3)c2=O)cc1`, the cytotoxicity at 70.5 h was 12.6%.

For the compound `CCOc1ccc(Cc2c(O)nc(SC)n(-c3ccccc3)c2=O)cc1`, the cytotoxicity at 70.5 h is -2.28%.

As for `COc1cccc(OCc2cc(C(=O)N3CC(O)C3)n[nH]2)c1`, the cytotoxicity at 70.5 h is -2.2%.

Regarding `CCCOc1ccc(C(=O)N[C@@H]2CCNC[C@H]2O)cc1Cl`, the cytotoxicity at 70.5 h came to 2.76%.

Consider `COc1ccc(Cl)cc1C(C(=O)O)N(C)Cc1ccon1` (stereo not drawn), for which the cytotoxicity at 70.5 h is 11.7%.

Turning to `CCNC(=O)[C@@H]1C[C@H](N)CN1C(=O)Cc1cc(C)ccc1C`, the cytotoxicity at 70.5 h is -12.9%.

For `O=C(C1CCOC1)N1CCC(OCc2ccccc2)CC1` (stereo not drawn), the cytotoxicity at 70.5 h was -5.49%.

Take `CN1CCN(C(=O)c2ccc3c(c2)nc(N2CCOCC2)n3C)CC1=O`: the cytotoxicity at 70.5 h was -5.46%.

On to `CC1=NN(CC(=O)N2CC[C@@H]3[C@@H](CCC(=O)N3CC(C)C)C2)CC1`, for which the cytotoxicity at 70.5 h is -1.09%.

On to `O=C(c1cnc(O)cn1)N(Cc1ccsc1)CC1CCCO1` (stereo not drawn), for which the cytotoxicity at 70.5 h worked out at 25.2%.

As for `COc1cccc(OCC2CCCN(C(=O)c3ncoc3C3CC3)C2)c1` (stereo not drawn), the cytotoxicity at 70.5 h is -11.7%.

In the case of `COc1ncc(-c2cc(-c3ccn(C)c3)nc(N)c2C#N)cn1`, the cytotoxicity at 70.5 h stood at 7.14%.

Turning to `CC(C)c1ccn(C2(C(=O)O)CCN(c3cc(C(N)=O)ccn3)CC2)n1`, the cytotoxicity at 70.5 h is -3.6%.

With `Cc1ccc2c(c1)c(CNC(=O)C1CCN(CC(N)=O)CC1)nn2C`, the cytotoxicity at 70.5 h was -2.32%.

As for `Cc1noc(C2CCCCN2C(=O)C2CCN(C(C)C)CC2)n1` (stereo not drawn), the cytotoxicity at 70.5 h is 5.11%.

With `COCc1nc(CN2CC(=O)N(C)c3ccccc3C2=O)no1`, the cytotoxicity at 70.5 h is -5.63%.

With `COCCCC1CCCN(C(=O)CCc2csc(N)n2)C1` (stereo not drawn), the cytotoxicity at 70.5 h is -11.8%.

Regarding `Fc1cccc2ncnc(NCCCc3ccncc3)c12`, the cytotoxicity at 70.5 h was -4.44%.

As to `Cc1nn(C)c2ncnc(NCc3nncn3C3CCCCC3)c12`, the cytotoxicity at 70.5 h is -6.04%.

As for `O=C(c1ccco1)N1CCc2ncnc(NCc3ccccn3)c2CC1`, the cytotoxicity at 70.5 h was -8.48%.

For the compound `O=C(NCc1csc(-c2cccs2)n1)C1NCCc2[nH]cnc21` (stereo not drawn), the cytotoxicity at 70.5 h was -19.8%.

`C=C(C)COc1cccc(CNCCc2c[nH]cn2)c1`: the cytotoxicity at 70.5 h is -6.28%.

For the compound `CCc1ccc2nc(C)cc(C(=O)NC[C@@H]3CCNC[C@H]3O)c2c1`, the cytotoxicity at 70.5 h is 14.5%.

Regarding `CC(C)n1cnnc1CN(C)C(=O)c1ccc[nH]1`, the cytotoxicity at 70.5 h turned out to be 18.8%.

Consider `Cn1cnnc1CN1CCC2(CCCN(C3CCCCC3)C2=O)C1` (stereo not drawn), for which the cytotoxicity at 70.5 h is -1.45%.

Consider `O=C(c1cc(=O)n(-c2ccccc2)[nH]1)N1CCCC(c2ccn[nH]2)C1` (stereo not drawn), for which the cytotoxicity at 70.5 h was 48%.

As to `CCC(C(=O)NCCc1nc(C)cc(C(F)(F)F)n1)n1cccn1` (stereo not drawn), the cytotoxicity at 70.5 h is 20%.

On to `COc1cccc2c1OCCCN(Cc1c[nH]nc1C(=O)O)C2`, for which the cytotoxicity at 70.5 h was -9%.

For `O=C(CCc1cc(Cl)no1)N1CCCCC1CCN1CCOCC1` (stereo not drawn), the cytotoxicity at 70.5 h was -2.5%.

Regarding `CC(=O)NCCC1CCCCN1S(=O)(=O)c1cccc(F)c1` (stereo not drawn), the cytotoxicity at 70.5 h was found to be 19.6%.

On to `Cc1ccnc(NCCNC(=O)C2CC3(CCNCC3)CN2C)c1` (stereo not drawn), for which the cytotoxicity at 70.5 h was -3.92%.

For the compound `CCCc1nnc(N2CCN(C3CCCC3)CC2)o1`, the cytotoxicity at 70.5 h was -14.3%.

As for `Cc1ccc(C(CNC(=O)c2cc(CC(C)C)nn2C)N(C)C)cc1` (stereo not drawn), the cytotoxicity at 70.5 h was -3.96%.

As to `CC(=O)c1cc(CN2CCCC2c2nc3ccc(C)cc3[nH]2)cs1` (stereo not drawn), the cytotoxicity at 70.5 h was -3.73%.

With `CN1CCN(C[C@H]2CC[C@@H](Cc3ccc(CN4CCCC4)cc3)O2)CC1`, the cytotoxicity at 70.5 h was -6.45%.

Take `Cc1noc(C)c1CN1CCC(c2nnc(Cn3cccn3)n2C)CC1`: the cytotoxicity at 70.5 h was -6.21%.

`CC(C)CN(Cc1ccc(O)c(C(=O)O)c1)Cc1ccccn1`: the cytotoxicity at 70.5 h is 5.47%.

Regarding `c1coc(-c2nc(CNC3CCCNC3)no2)c1` (stereo not drawn), the cytotoxicity at 70.5 h is 1.79%.

As for `Cc1nc(NC(=O)N2CCCC(N(C)C)C2)nn1C` (stereo not drawn), the cytotoxicity at 70.5 h is 31.8%.

As to `Cc1[nH]c(=O)[nH]c(=O)c1CN1CCCC(CCc2ccc(F)c(F)c2)C1` (stereo not drawn), the cytotoxicity at 70.5 h was -10.6%.

With `COCC1CCN(S(=O)(=O)N2C[C@@H](C)[C@@](C)(O)C2)CC1`, the cytotoxicity at 70.5 h is -0.99%.

Consider `CC[C@@]1(O)CCN(C(=O)c2ccc(-c3ccco3)cc2)C[C@H]1O`, for which the cytotoxicity at 70.5 h was -5.37%.

Regarding `CCn1ccnc1C1CCN(Cc2c(F)cccc2F)CC1`, the cytotoxicity at 70.5 h worked out at 3.09%.

As to `CCOc1ccccc1-n1c(-c2cn(CC)nc2C)n[nH]c1=O`, the cytotoxicity at 70.5 h is -4.81%.

On to `CN(CCN1CCCCCC1)C(=O)c1c(O)cccc1O`, for which the cytotoxicity at 70.5 h was -2.54%.

Regarding `CCc1cnc(N2CCCOC(CN3CCCC3)C2)nc1` (stereo not drawn), the cytotoxicity at 70.5 h was determined as 7.5%.

In the case of `OCCNc1cc(N2CCN(Cc3ccccc3)C(CCO)C2)ncn1` (stereo not drawn), the cytotoxicity at 70.5 h was -7.07%.

For `Cc1cc(CN(C)CC2CCCN(CCc3ccc(Cl)cc3)C2)[nH]n1` (stereo not drawn), the cytotoxicity at 70.5 h was -4.86%.

As for `CCOCC(O)c1nc2c([nH]1)CC(C)(C)CNC2=O` (stereo not drawn), the cytotoxicity at 70.5 h was -11.8%.

`CC(=O)N1C[C@@H]2CC[C@H](C1)N(Cc1ccc(Cn3cccn3)cc1)C2`: the cytotoxicity at 70.5 h was -19.2%.

For the compound `CN(CCCc1nccn1C)C(=O)C1CCN(C(=O)C2CCC2)CC1`, the cytotoxicity at 70.5 h was 3.53%.

Regarding `CCN(Cc1ccccc1)C(=O)CCN1C[C@@H](C(=O)O)[C@H](C2CC2)C1`, the cytotoxicity at 70.5 h was -8.23%.

For `CCCc1ccc(OC23CCCN(CC2)C3)c(OC)c1` (stereo not drawn), the cytotoxicity at 70.5 h is -9.71%.

Turning to `Cn1ncc(NC(=O)Cn2ccc(-c3ccc(F)cc3)n2)n1`, the cytotoxicity at 70.5 h stood at 0.148%.

Turning to `Cc1nccn1CCC1CCCCN1Cc1ccc(O)cc1Cl` (stereo not drawn), the cytotoxicity at 70.5 h was found to be 15.6%.

Take `Cc1cccc2sc(NC(=O)CN3CCCC(O)(CO)C3)nc12` (stereo not drawn): the cytotoxicity at 70.5 h worked out at 11%.

On to `O=C(NCc1cccnc1N1CCCC(O)C1)c1ccc2[nH]nnc2c1` (stereo not drawn), for which the cytotoxicity at 70.5 h is -25%.

Take `C[C@@H]1CN(Cc2c[nH]c(CC3CCCC3)n2)CC[C@]1(C)O`: the cytotoxicity at 70.5 h is -9.37%.

In the case of `Fc1ccc(CN2CCCC3(CCN(Cc4ncc[nH]4)C3)C2)cc1F` (stereo not drawn), the cytotoxicity at 70.5 h is -0.549%.

Take `COc1ccc(C(=O)C2CCCN(c3cc(C#N)ccn3)C2)cc1F` (stereo not drawn): the cytotoxicity at 70.5 h was -6.04%.

Take `CN(C)[C@H]1CCCCN(Cc2ccccc2Cn2cccn2)C1`: the cytotoxicity at 70.5 h came to 2.32%.

Consider `COc1ccc(OC2CCN(C(=O)CCc3nc(Cl)n[nH]3)CC2)cc1`, for which the cytotoxicity at 70.5 h was -4.51%.

In the case of `CCn1c(N)nc2cc(C(=O)N3CCCOCC3)cnc21`, the cytotoxicity at 70.5 h was -6.56%.

As to `Clc1cccc(C2CCN(c3ncnc4c3CCNC4)C2)c1` (stereo not drawn), the cytotoxicity at 70.5 h is -1.22%.

As to `CCc1oc(C(=O)NCCc2cc(O)nc(C)n2)cc1CN1CCCC1`, the cytotoxicity at 70.5 h is -6.98%.

`Cc1csc2c(N3CCNC(C(=O)N4CCCC4)C3)ncnc12` (stereo not drawn): the cytotoxicity at 70.5 h was -7.34%.

Turning to `CCNC(=O)[C@@H]1C[C@H](N)CN1c1cc(CC)nc(N(C)C)n1`, the cytotoxicity at 70.5 h was -4.05%.

Regarding `O=C(CCN1CCCCO1)N1CC[C@H](O)[C@@H](O)C1`, the cytotoxicity at 70.5 h came out at 11.6%.

For `CCc1cc(N[C@H](C(N)=O)C(C)C)n2nc(C)c(C)c2n1`, the cytotoxicity at 70.5 h was -6.29%.

For the compound `Cc1nn(C)cc1C(=O)N1CCCC(c2nccn2Cc2cscn2)C1` (stereo not drawn), the cytotoxicity at 70.5 h is -7.69%.

Consider `Cc1ocnc1C(=O)N1CCC2(CC1)c1nc[nH]c1CCN2CC(C)C`, for which the cytotoxicity at 70.5 h came to 27.1%.

For `O=S1(=O)C[C@@H]2[C@H](C1)N(Cc1nc3ccccc3[nH]1)CCN2CC1CC1`, the cytotoxicity at 70.5 h was -5.06%.

Take `CCc1nc2c(N3CCC4(CC3)CNC(=O)C4)ncnc2o1`: the cytotoxicity at 70.5 h was -3.31%.

For `CN(C)c1cccc(C(=O)N2C[C@H]3CC[C@@H]2CN(C(=O)C2CCC2)C3)c1`, the cytotoxicity at 70.5 h was found to be 0.254%.

Regarding `COCCCC1(CO)CCCN(C(=O)c2cnc3c(c2)CCCC3)C1` (stereo not drawn), the cytotoxicity at 70.5 h was -6.26%.

For the compound `CNc1ncccc1CN1CCN2CCN(C)CC2C1` (stereo not drawn), the cytotoxicity at 70.5 h was -7.61%.

For `COCCN(Cc1cccs1)c1nc(CCN)nc2ccccc12`, the cytotoxicity at 70.5 h was -9.93%.

For the compound `CCn1c(C2CCN(C(=O)c3cc(Cl)no3)CC2)nn(C)c1=O`, the cytotoxicity at 70.5 h was 39%.

For `O=C(Nc1ccc(F)cc1)N1CCC2(CCC(=O)N(C3CC3)C2)CC1`, the cytotoxicity at 70.5 h was -11.6%.

Turning to `FC(F)(F)C1CN(Cc2cccc(OCc3ccccn3)c2)CCO1` (stereo not drawn), the cytotoxicity at 70.5 h amounted to 8.84%.
